# Counter-ions that a name gives are not always drawn. Like-named read-outs stand apart in the source and are kept apart here.
# Tests used:
# human CYP2C9 [1] = molecular target: T1, human CYP2C9 (Homo sapiens, UniProt P11712); assay: biochemical
# human CYP2C19 [2] = molecular target: T2, human CYP2C19 (Homo sapiens, UniProt P33261); assay: biochemical; conditions: for IC50: CYP2C19 IC50 (half-maximal inhibitory concentration); for AC50: CYP2C19 AC50 (half-maximal activity concentration)
# human CYP2D6 [3] = molecular target: T3, human CYP2D6 (Homo sapiens, UniProt P10635); assay: biochemical
# human CYP1A2 = molecular target: T4, human CYP1A2 (Homo sapiens, UniProt P05177); assay: biochemical
# T4 sequence (P05177 1-516): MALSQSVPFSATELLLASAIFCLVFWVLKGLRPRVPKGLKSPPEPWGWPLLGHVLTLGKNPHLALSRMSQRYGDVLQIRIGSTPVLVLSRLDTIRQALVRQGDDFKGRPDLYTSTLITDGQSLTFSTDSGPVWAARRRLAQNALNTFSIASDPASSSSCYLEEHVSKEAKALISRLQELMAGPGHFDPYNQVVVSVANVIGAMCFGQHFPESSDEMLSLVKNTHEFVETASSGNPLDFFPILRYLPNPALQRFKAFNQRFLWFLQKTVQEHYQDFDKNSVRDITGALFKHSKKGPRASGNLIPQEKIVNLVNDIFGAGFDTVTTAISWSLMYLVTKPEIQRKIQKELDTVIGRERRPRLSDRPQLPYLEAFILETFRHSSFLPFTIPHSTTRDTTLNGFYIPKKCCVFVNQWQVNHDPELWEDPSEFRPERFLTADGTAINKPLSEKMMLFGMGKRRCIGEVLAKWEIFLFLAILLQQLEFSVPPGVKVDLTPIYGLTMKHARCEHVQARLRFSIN
# human CYP2C9 [4] = molecular target: T1, human CYP2C9; conditions: human
# human CYP2C19 [5] = molecular target: T2, human CYP2C19; conditions: human
# human CYP2D6 [6] = molecular target: T3, human CYP2D6; conditions: human
# [7] = CYP2C9 IC50 (half-maximal inhibitory concentration)
# [8] = CYP2D6 IC50 (half-maximal inhibitory concentration)
# [9] = CYP1A2 AC50 (half-maximal activity concentration)
# [10] = CYP2D6 AC50 (half-maximal activity concentration)
# [11] = CYP2C9 AC50 (half-maximal activity concentration)
# T3 sequence (P10635 whole entry): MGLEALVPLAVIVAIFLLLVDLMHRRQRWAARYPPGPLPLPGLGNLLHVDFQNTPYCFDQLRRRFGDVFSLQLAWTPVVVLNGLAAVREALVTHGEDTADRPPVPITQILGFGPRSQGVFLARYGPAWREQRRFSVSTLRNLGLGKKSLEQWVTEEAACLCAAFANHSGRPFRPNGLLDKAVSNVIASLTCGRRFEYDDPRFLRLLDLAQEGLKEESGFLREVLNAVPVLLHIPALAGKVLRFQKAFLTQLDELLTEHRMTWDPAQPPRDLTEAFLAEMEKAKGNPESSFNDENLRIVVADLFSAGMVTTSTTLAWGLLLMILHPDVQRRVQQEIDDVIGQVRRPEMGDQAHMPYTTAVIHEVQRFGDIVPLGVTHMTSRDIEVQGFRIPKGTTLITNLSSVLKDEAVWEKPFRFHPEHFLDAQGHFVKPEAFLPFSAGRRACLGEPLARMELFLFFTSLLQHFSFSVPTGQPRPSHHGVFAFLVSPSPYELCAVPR
# T1 sequence (P11712 whole entry): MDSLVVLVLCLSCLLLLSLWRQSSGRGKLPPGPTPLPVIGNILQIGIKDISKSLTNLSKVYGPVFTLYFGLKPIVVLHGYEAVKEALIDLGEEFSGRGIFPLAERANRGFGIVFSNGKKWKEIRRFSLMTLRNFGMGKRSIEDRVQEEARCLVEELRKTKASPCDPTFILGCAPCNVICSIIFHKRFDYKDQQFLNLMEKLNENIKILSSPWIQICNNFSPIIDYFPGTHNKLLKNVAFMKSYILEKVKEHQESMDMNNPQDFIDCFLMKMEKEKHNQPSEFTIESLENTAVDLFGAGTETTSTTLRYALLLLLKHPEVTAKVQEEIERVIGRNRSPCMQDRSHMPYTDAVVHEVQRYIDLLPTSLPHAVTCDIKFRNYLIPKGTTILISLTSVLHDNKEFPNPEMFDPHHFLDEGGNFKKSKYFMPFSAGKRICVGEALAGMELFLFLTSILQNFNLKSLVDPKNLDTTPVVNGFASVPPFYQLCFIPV
# T2 sequence (P33261 whole entry): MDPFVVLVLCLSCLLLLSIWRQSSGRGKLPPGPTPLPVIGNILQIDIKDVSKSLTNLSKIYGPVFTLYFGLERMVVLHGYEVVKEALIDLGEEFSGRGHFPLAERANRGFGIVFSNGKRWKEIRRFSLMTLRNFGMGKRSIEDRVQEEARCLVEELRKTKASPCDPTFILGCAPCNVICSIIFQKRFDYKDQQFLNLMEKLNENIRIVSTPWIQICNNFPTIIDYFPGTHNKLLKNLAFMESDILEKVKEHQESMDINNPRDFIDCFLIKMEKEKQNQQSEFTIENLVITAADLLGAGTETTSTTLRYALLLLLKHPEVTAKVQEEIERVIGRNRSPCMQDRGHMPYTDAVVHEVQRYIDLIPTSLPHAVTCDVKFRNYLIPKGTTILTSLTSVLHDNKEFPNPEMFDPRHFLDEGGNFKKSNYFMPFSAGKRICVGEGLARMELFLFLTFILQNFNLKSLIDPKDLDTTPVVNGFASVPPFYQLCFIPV
smiles,measurement,setting,value
Cc1c(O)cccc1C(=O)N[C@@H](CSc1ccccc1)[C@H](O)CN1C[C@H]2CCCC[C@H]2C[C@H]1C(=O)NC(C)(C)C [Nelfinavir mesylate],IC50,human CYP2C9 [1]; [7],19.1 µM
same,IC50,human CYP2C19 [2],42.1 µM
same,IC50,human CYP2D6 [3]; [8],14.4 µM
O=C(OCC1(COC(=O)c2cccnc2)CCCC(COC(=O)c2cccnc2)(COC(=O)c2cccnc2)C1O)c1cccnc1 [Nicomolol],IC50,human CYP2C9 [1]; [7],8.67 µM
same,IC50,human CYP2C19 [2],23.3 µM
same,IC50,human CYP2D6 [3]; [8],22.4 µM
COc1ccc2c(c1OC)C(=O)O[C@@H]2[C@H]1c2c(cc3c(c2OC)OCO3)CCN1C [Noscapine],IC50,human CYP2C9 [1]; [7],0.84 µM
same,IC50,human CYP2C19 [2],1.38 µM
same,IC50,human CYP2D6 [3]; [8],12.9 µM
CC(CCc1ccccc1)NC(C)C(O)c1ccc(O)cc1 (centres unmarked) [Nylidrin],AC50,human CYP1A2; [9],13.6 µM
same,IC50,human CYP1A2; CYP1A2 IC50 (half-maximal inhibitory concentration),13.6 µM
same,AC50,human CYP2C19 [2],9.42 µM
same,IC50,human CYP2C19 [2],9.42 µM
same,AC50,human CYP2D6 [3]; [10],0.49 µM
same,IC50,human CYP2D6 [3]; [8],0.49 µM
CN1CCCN=C1COC(=O)C(O)(c1ccccc1)C1CCCCC1 (centres unmarked) [Oxyphencyclimine hydrochloride],IC50,human CYP1A2,14.6 µM
same,IC50,human CYP2D6 [3],0.92 µM
CC[N+](C)(CC)CCOC(=O)C(O)(c1ccccc1)C1CCCCC1 (centres unmarked) [Oxyphenonium bromide],IC50,human CYP2D6 [3]; [8],0.87 µM
CC(N/C(=N\C#N)Nc1ccncc1)C(C)(C)C (centres unmarked) [Pinacidil monohydrate],CYP2C9 Efficacy (in parenthesis),human CYP2C9 [4],13.86 ± 1.59 (-102 ± 3) %
same,CYP2C19 Efficacy (in parenthesis),human CYP2C19 [5],2.06 ± 0.47 (-116 ± 6) %
same,CYP2D6 Efficacy (in parenthesis),human CYP2D6 [6],25.27 ± 7.04 (-50 ± 9) %
same,IC50,human CYP2C9 [1]; [7],13.9 µM
same,IC50,human CYP2C19 [2],2.06 µM
same,IC50,human CYP2D6 [3]; [8],25.3 µM
CC1CCCC(C)N1CCCC(O)(c1ccccc1)c1ccccn1 (centres unmarked) [Pirmenol],IC50,human CYP2D6 [3]; [8],0.92 µM
CC[C@@H]([C@H](C)O)n1ncn(-c2ccc(N3CCN(c4ccc(OC[C@@H]5CO[C@@](Cn6cncn6)(c6ccc(F)cc6F)C5)cc4)CC3)cc2)c1=O [Posaconazole],IC50,human CYP2D6 [3],11.3 ± 3.6 µM
CC(C)[N+](C)(CCOC(=O)C1c2ccccc2Oc2ccccc21)C(C)C [Propantheline bromide],AC50,human CYP2D6 [3]; [10],0.19 µM
same,IC50,human CYP2D6 [3]; [8],0.09 µM
Cn1cc(C(=O)[C@@H]2CCc3nc[nH]c3C2)c2ccccc21 [Ramosetron hydrochloride],AC50,human CYP1A2,17.4 µM
same,AC50,human CYP2C9 [1],10.7 ± 4.21 µM
same,AC50,human CYP2D6 [3],17.4 µM
C=C(C)[C@H]1Cc2c(ccc3c2O[C@@H]2COc4cc(OC)c(OC)cc4[C@@H]2C3=O)O1 [Rotenone],IC50,human CYP2C9 [1],9.2 µM
same,IC50,human CYP2C19 [2],1.04 µM
same,IC50,human CYP2D6 [3],37.7 µM
CCCc1nn(C)c2c(=O)[nH]c(-c3cc(S(=O)(=O)N4CCN(C)CC4)ccc3OCC)nc12 [Sildenafil citrate],IC50,human CYP2C9 [1]; [7],20.6 µM
same,IC50,human CYP2C19 [2],30.4 µM
same,IC50,human CYP2D6 [3]; [8],31.7 µM
CC[N+](CC)(CC)CCOc1ccc(/C=C/c2ccccc2)cc1 [Stilonium iodide],AC50,human CYP2D6 [3]; [10],15.5 µM
Nc1ccc(S(=O)(=O)Nc2nccs2)cc1 [Sulfathiazole],AC50,human CYP1A2; [9],33.2 µM
same,AC50,human CYP2C9 [1]; [11],13.3 µM
same,AC50,human CYP2D6 [3]; [10],56.1 µM
CCOc1ccccc1OCCN[C@H](C)Cc1ccc(OC)c(S(N)(=O)=O)c1 [Tamsulosin hydrochloride],IC50,human CYP2D6 [3]; [8],12.8 µM
CN1CCN(CCCN2c3ccccc3Sc3ccc(S(=O)(=O)N(C)C)cc32)CC1 [Thioproperazine dimethanesulfonate],IC50,human CYP1A2,24.1 ± 9.56 µM
same,IC50,human CYP2C9 [1],17.4 µM
same,IC50,human CYP2D6 [3],15.5 µM
OC(CCN1CCCCC1)(c1ccccc1)C1CCCCC1 (centres unmarked) [Trihexyphenidyl hydrochloride],IC50,human CYP2C19 [2],17.2 µM
same,IC50,human CYP2D6 [3]; [8],0.76 µM
CC1(C)CCC(=Cc2ccc(Cl)cc2)C1(O)Cn1cncn1 (centres unmarked) [Triticonazole],CYP2C9 Efficacy (in parenthesis),human CYP2C9 [4],1.47 ± 0.17 (-105 ± 3) %
same,CYP2C19 Efficacy (in parenthesis),human CYP2C19 [5],0.34 ± 0.15 (-129 ± 16) %
same,CYP2D6 Efficacy (in parenthesis),human CYP2D6 [6],9.5 ± 2.8 (-97 ± 3) %
same,IC50,human CYP2C9 [1]; [7],1.47 µM
same,IC50,human CYP2C19 [2],0.34 µM
same,IC50,human CYP2D6 [3]; [8],9.5 µM
COc1ccccc1N1CCN(CCCNc2cc(=O)n(C)c(=O)n2C)CC1 [Urapidil hydrochloride],AC50,human CYP2D6 [3]; [10],14 µM
C=CCOC(Cn1ccnc1)c1ccc(Cl)cc1Cl (centres unmarked) [imazalil],IC50,human CYP2C9 [1]; [7],0.77 µM
same,IC50,human CYP2C19 [2],0.15 µM
same,IC50,human CYP2D6 [3]; [8],6.12 µM
"CC(CCc1ccccc1)NCC(O)c1ccc(O)c(C(N)=O)c1 (centres unmarked) [labetalol, reference compound]",IC50,human CYP2D6 [3],0.6 µM
"Clc1ccc(C(c2ccccc2Cl)C(Cl)Cl)cc1 (centres unmarked) [o,p'-DDD]",AC50,human CYP2C9 [1]; [11],16.8 µM
same,AC50,human CYP2C19 [2],1.05 µM
same,AC50,human CYP2D6 [3]; [10],31.2 µM
"CC(CN(C)C)CN1c2ccccc2CCc2ccccc21 (centres unmarked) [trimipramine, reference compound]",IC50,human CYP2D6 [3]; IC50 CYP2D6 assay,3.1 µM
